# From US20180200279A1, “INHIBITION OF HSV-1-ASSOCIATED CORNEAL NEOVASCULARIZATION USING INHIBITORS OF CYCLIN-DEPENDENT KINASE 9” (XAVIER UNIVERSITY OF LOUISIANA, priority 2014, published 2018)
# What was measured:
# global transcription = settings: low-dose FP; Lu et al. Mol Cancer Ther (2004); cited from earlier work
# [1] = system: HSV-1 17syn+ induced corneal neovascularization; assay: HSV-1 corneal neovascularization mouse model, slit-lamp examination score; format: in vivo, Balb/c mice; settings: day 25 post infection; drops 4 times daily for 14 days; 1% TFT, 0.01% flavopiridol, 0.1% DRB; n=10
# Method: Corneal neovascularization was determined in a masked fashion by slit lamp analysis on days 2, 4, 7, 9, 11, 14, 18, and 25 post-infection (PI) with 5×10^5 PFU/eye of HSV-1 17syn+ using the formula A=(C×0.4×L×n)/2 where C=clock hours of neovascularization; 30° arc is 1 (360° circle with a total of 12); L is the length of the longest neovessel, and A is the area of neovascularization.
# All experimental procedures were performed in accordance with the ARVO Resolution for the Use of Animals in Ophthalmic and Vision Research and were approved by the Xavier University Animal Care and Use Committee. Female 20 g Balb/c mice were obtained from Charles River Laboratories. Mice were allowed to equilibrate to their surroundings for 2 weeks and then were anesthetized by intramuscular administration of xylazine (6.6 mg/kg of body weight) and ketamine (100 mg/kg of body weight). The corneas were mildly scarified in a 2×2 cross-hatch pattern and each cornea was inoculated with 5×10^5 PFU of strain HSV 17syn+. […] Average neovascularization/eye was scored using the formula A=(C×0.4×L×π)/2 where C=clock hours of neovascularization; 30° arc is 1 (360° circle with a total of 12); L is the length of the longest neovessel, and A is the area of neovascularization. Students scored (by eye) the animals on the days indicated in a masked fashion using the slit-lamp, and images representative of each group were taken. Clinical scores based on epiphora, inflammation and discharge were calculated where 0=no manifestations, +1=slight manifestations, +2=moderate manifestations, and +3=severe manifestations. […] Ex ovo chick embryo chorioallantoic membrane collagen angiogenesis assays were performed using methods as previously described (Deryugina E I and Quigley J P. Chapter 2. Chick embryo chorioallantoic membrane models to quantify angiogenesis induced by inflammatory and tumor cells or purified effector molecules. Methods Enzymol. 444:21-41. 2008). […]
# This was assessed with the dose and frequency that was used in the chemotherapeutic study of HSV-1 corneal neovascularization. […]
# [2] = Ocular safety and tolerability of the formulation, rabbit eyes; format: in vivo; settings: dose and frequency of the HSV-1 corneal neovascularization study
# Method: (§1) This was assessed with the dose and frequency that was used in the chemotherapeutic study of HSV-1 corneal neovascularization. FIG. 1A presents the results of slit-lamp examination (SLE) scores of the corneas of the four treatment groups beginning on post-inoculation day 2 and continuing to 25 days following infection.
# [3] = system: HSV-1 17syn+ ocular infection; assay: HSV-1 ocular infection mouse model, combined clinical score (epiphora, inflammation, discharge); format: in vivo, Balb/c mice; settings: 1% TFT, 0.01% flavopiridol, 0.1% DRB drops
# Method: The combined clinical score was determined based on epiphora (excess tearing), inflammation and discharge. […], +1=slight manifestations, +2=moderate manifestations, and +3=severe manifestations.
# (§2) All experimental procedures were performed in accordance with the ARVO Resolution for the Use of Animals in Ophthalmic and Vision Research and were approved by the Xavier University Animal Care and Use Committee. Female 20 g Balb/c mice were obtained from Charles River Laboratories. Mice were allowed to equilibrate to their surroundings for 2 weeks and then were anesthetized by intramuscular administration of xylazine (6.6 mg/kg of body weight) and ketamine (100 mg/kg of body weight). The corneas were mildly scarified in a 2×2 cross-hatch pattern and each cornea was inoculated with 5×10^5 PFU of strain HSV 17syn+. […] DNA was collected by swabbing the eyes with filter paper, and the eyes were examined with a slit-lamp on PI days 2, 4, 7, 9, 11, 14, 18 and 25. Average neovascularization/eye was scored using the formula A=(C×0.4×L×π)/2 where C=clock hours of neovascularization; 30° arc is 1 (360° circle with a total of 12); L is the length of the longest neovessel, and A is the area of neovascularization. Students scored (by eye) the animals on the days indicated in a masked fashion using the slit-lamp, and images representative of each group were taken. Clinical scores based on epiphora, inflammation and discharge were calculated where 0=no manifestations, +1=slight manifestations, +2=moderate manifestations, and +3=severe manifestations. Mice were sacrificed with CO2 on day 25 post-infection, and eyes were harvested, sectioned, stained with hematoxylin and eosin (H&E) for histological analysis based on peripheral neovascularization and leukocytic infiltration where 0=clear eyes, 0.5=either peripheral neovascularization or leukocytic infiltration, and 1=both peripheral neovascularization and leukocytic infiltration. Ex ovo chick embryo chorioallantoic membrane collagen angiogenesis assays were performed using methods as previously described (Deryugina E I and Quigley J P. Chapter 2. Chick embryo chorioallantoic membrane models to quantify angiogenesis induced by inflammatory and tumor cells or purified effector molecules. Methods Enzymol. 444:21-41. 2008). Briefly, fertilized embryos (Charles River Laboratories, Charleston, S.C.) were incubated at 37.5° C. for 3 days, removed from their shell using a Dremel tool and placed into a covered weighing boat for 7 further days of incubation. […] Four collagen onplants were added per egg on at least 3 separate eggs. After three additional days of incubation, images were taken of each plug using a mini-Vid camera (LW Scientific; Lawrenceville, Ga.) and quantified in a masked fashion based on the percentage of grids that were positive for newly formed blood vessels.
# FIG. 1B is the combined clinical score for the treatment groups based on epiphora (excess tearing), inflammation, and discharge.
# HUVEC [4] = assay: Global transcription, BrU incorporation into RNA by flow cytometry; format: cell-based, human; settings: serum-starved, PMA-treated HUVEC
# Method: Vein endothelial cells (VEC) were activated with phorbol myristate acetate (PMA) and incubated with membrane-permeable 5-bromouridine (BrU) that incorporates into RNA transcribed during the incubation period. A commercially available antibody against 5-bromo-deoxy-uridine was then used to quantify BrU-containing RNA. Cells were analyzed by immunofluorescence staining (not shown) and by flow cytometry for the presence of incorporated BrU to quantify the level of global transcription. […] Additional controls include no antibody and no BrU.
# To determine whether FP blocked transcription globally at concentrations at which it reduces angiogenesis in vitro, HUVEC were activated with phorbol myristate acetate (PMA) and incubated with membrane-permeable 5-bromouridine (BrU) that incorporates into RNA transcribed during the incubation period. A commercially available antibody against 5-bromo-deoxy-uridine was then used to quantify BrU-containing RNA. Cells were analyzed by immunofluorescence staining (not shown) and by flow cytometry for the presence of incorporated BrU to quantify the level of global transcription.
# Additional controls include no antibody (-Ab) and no BrU (-BrU) (FIG. 5A).
# [5] = system: HSV-1 17syn+ ocular infection; assay: HSV-1 ocular infection mouse model, H&E histology of eyes (leukocytic infiltration, peripheral neovascularization); format: in vivo, Balb/c mice; settings: day 25 PI
# Method: Histological score (0-1) was calculated based on leukocytic infiltration and peripheral neovascularization of hematoxylin & eosin (H&E) stained slides of mouse eyes on day 25 PI.
# as §2
# To confirm the results in FIGS. 1A and 1B, sections of one cornea from each mouse was sectioned, stained with H&E and analyzed for leukocytic infiltrate and peripheral neovascularization of the cornea.
# [6] = Ocular safety and tolerability of the formulation, mouse eyes; format: in vivo; settings: dose and frequency of the HSV-1 corneal neovascularization study
# Method: as §1
# HUVEC [7] = assay: In vitro tubule formation assay; format: cell-based, human; settings: 25 ng/mL bFGF and VEGF
# Method: The number of circular tubular structures formed by HUVEC under conditions of serum starvation followed by treatment with 25 ng/mL bFGF and VEGF and with 0-200 nM FP were quantitatively analyzed. Manual counting at low power fields was used to quantitate tubular structures and percentage of inhibition was expressed using VEGF control wells as 100%.
# Growth factor-reduced Geltrex (Life Technologies, Grand Island, N.Y.) was thawed overnight on ice. Each well of 96-well plated was coated at […] with 50 μL Geltrex and incubated at 37° C. for 30 min. […] After 12-16 hours, tubule formation was assessed with an inverted photomicroscope and the images were photographed using Olympus U-RLF-T microscope. Manual counting at low power fields was used to quantitate tubular structures and percentage of inhibition was expressed using VEGF control wells as 100%. Results represent one triplicate repeat of three independent experiments with similar results.
# Following migration from the vessel of origin and invasion through the ECM, ECs form capillary tubules. […] The number of circular nodes surrounded by tubular structures was quantitatively analyzed in a masked fashion.
smiles,measurement,setting,value
CN1CC[C@H](c2c(O)cc(O)c3c(=O)cc(-c4ccccc4Cl)oc23)[C@H](O)C1 [flavopiridol],block of global transcription,global transcription,does not block global transcription
same,slit-lamp examination (SLE) score of corneal neovascularization,[1],0.039±0.176
same,safety and tolerability of the formulation in the eye,[2],safe and well-tolerated
same,"combined clinical score (epiphora, inflammation, discharge; 0 to +3)",[3]; day 11,0.169±0.248
same,"combined clinical score (epiphora, inflammation, discharge; 0 to +3)",[3]; day 25,0.039±0.177
same,BrU incorporation into RNA (total cellular transcription),HUVEC [4]; 50 nM-300 nM FP,only slightly reduced
same,BrU incorporation into RNA (total cellular transcription),HUVEC [4]; 600 nM-1 μM FP,significantly (p<0.05 compared with untreated cells) reduced BrU incorporation into RNA
same,mouse eyes exhibiting corneal neovascularization,[5]; H&E sections,0%
same,mouse eyes exhibiting leukocytic infiltration,[5]; H&E sections,0%
same,histological score (scale 0-1) for leukocytic infiltrate and peripheral neovascularization,[5]; H&E stained corneal sections,0.125±0.125
same,safety and tolerability of the formulation in the eye,[6],safe and well-tolerated
same,"tubular structures, VEGF control wells as 100%","HUVEC [7]; 50 nM flavopiridol, not statistically different from control",114.7±7.17
same,"tubular structures, VEGF control wells as 100%","HUVEC [7]; 100 nM flavopiridol, not statistically different from control",97.67±5.36
same,"tubular structures, VEGF control wells as 100%","HUVEC [7]; 150 nM flavopiridol, significantly reduced",55.33±9.70
